ChEMBL document CHEMBL1136512, “Discovery of a novel series of 6-azauracil-based thyroid hormone receptor ligands: potent, TR beta subtype-selective thyromimetics” (Bioorg Med Chem Lett, 2003)

Columns and labels:
[1] = molecular target: T1, Thyroid hormone receptor beta (Homo sapiens, UniProt P10828); experiment: Effective concentration binding towards TR-beta-1 in E25B2 cells (agonistic activity)
T1 sequence (P10828 whole entry): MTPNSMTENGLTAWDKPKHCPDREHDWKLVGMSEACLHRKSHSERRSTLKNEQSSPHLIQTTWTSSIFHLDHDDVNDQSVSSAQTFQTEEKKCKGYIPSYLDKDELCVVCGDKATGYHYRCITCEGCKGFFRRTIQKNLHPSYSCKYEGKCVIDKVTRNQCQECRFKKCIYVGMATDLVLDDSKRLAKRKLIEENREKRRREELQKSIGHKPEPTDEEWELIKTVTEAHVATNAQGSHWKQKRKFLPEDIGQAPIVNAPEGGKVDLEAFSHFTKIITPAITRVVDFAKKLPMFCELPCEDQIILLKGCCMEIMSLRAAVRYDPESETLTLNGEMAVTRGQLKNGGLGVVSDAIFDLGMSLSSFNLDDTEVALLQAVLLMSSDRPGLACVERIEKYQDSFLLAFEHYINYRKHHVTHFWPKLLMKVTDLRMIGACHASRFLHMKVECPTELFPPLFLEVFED

[2] = molecular target: T1, Thyroid hormone receptor beta
[3] = molecular target: T2, Thyroid hormone receptor alpha (Homo sapiens, UniProt P10827)
T2 sequence (P10827 whole entry): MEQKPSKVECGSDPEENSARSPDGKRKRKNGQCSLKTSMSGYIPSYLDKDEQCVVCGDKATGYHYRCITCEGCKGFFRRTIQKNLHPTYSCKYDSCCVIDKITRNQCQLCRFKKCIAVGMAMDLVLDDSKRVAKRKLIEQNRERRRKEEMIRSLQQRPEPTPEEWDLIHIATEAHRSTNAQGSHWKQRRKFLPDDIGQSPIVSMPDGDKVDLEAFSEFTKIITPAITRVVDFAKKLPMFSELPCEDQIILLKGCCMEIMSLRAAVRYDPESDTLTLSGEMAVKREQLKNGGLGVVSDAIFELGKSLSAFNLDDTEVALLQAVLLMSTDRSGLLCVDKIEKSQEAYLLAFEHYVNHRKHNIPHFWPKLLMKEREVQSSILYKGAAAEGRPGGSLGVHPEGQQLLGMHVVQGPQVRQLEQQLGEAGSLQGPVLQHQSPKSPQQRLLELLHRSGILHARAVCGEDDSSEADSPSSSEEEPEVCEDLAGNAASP
Description: Effective concentration binding towards TRalpha in E25B2 cells (agonistic activity)

Compound	EC50 [1] [nM]	Ki [2] [nM]	EC50 [3] [nM]
O=c1cnn(-c2cc(Cl)c(Oc3ccc(O)c(S(=O)(=O)N4C5CCC4CC4(CCCO4)C5)c3)c(Cl)c2)c(=O)[nH]1 (stereo unspecified)	62	0.28	1500
O=C(c1cc(Oc2c(Cl)cc(-n3ncc(=O)[nH]c3=O)cc2Cl)ccc1O)N1CC2CCC1C2 (racemic; exo)		0.59	
Cc1cc(N2CCCNC2=O)cc(C)c1Oc1ccc(O)c(C(C)C)c1		10000	
Cc1cc(-n2ncc(=O)[nH]c2=O)cc(Cl)c1Oc1ccc(O)c(S(=O)(=O)N2CCN(C)CC2)c1		13	
O=C(c1cc(Oc2c(Cl)cc(-n3ncc(=O)[nH]c3=O)cc2Cl)ccc1O)N1CCOCC1		0.72	
O=c1cnn(-c2cc(Cl)c(Oc3ccc(O)c(S(=O)(=O)NC4CCC4)c3)c(Cl)c2)c(=O)[nH]1		0.4	
O=C(c1cc(Oc2c(Cl)cc(-n3ncc(=O)[nH]c3=O)cc2Cl)ccc1O)N1CC2CCC1C2 (stereo in doubt; 9h (R)-(+))		0.37	
O=C(c1cc(Oc2c(Cl)cc(-n3ncc(=O)[nH]c3=O)cc2Cl)ccc1O)N1CCCCC1		0.63	
Cc1cc(-n2ncc(=O)[nH]c2=O)cc(Cl)c1Oc1ccc(O)c(C(=O)N2CCCCC2)c1		1.9	
Cc1cc(-n2ncc(=O)[nH]c2=O)cc(C)c1Oc1ccc(O)c(S(=O)(=O)N2CCCCC2)c1		0.46	
O=c1cnn(-c2cc(Cl)c(Oc3ccc(O)c(S(=O)(=O)N4C5CCC4CC4(C5)OCCO4)c3)c(Cl)c2)c(=O)[nH]1		0.31	
O=C(NC1CCCCC1)c1cc(Oc2c(Cl)cc(-n3ncc(=O)[nH]c3=O)cc2Cl)ccc1O		0.07	
Cc1cc(-n2ncc(=O)[nH]c2=O)cc(Cl)c1Oc1ccc(O)c(S(=O)(=O)N2CCOCC2)c1		27	
CSc1ccc(Oc2c(C)cc(-n3ncc(=O)[nH]c3=O)cc2C)cc1C		2	
CC1(C)C2CCC(NC(=O)c3cc(Oc4c(Cl)cc(-n5ncc(=O)[nH]c5=O)cc4Cl)ccc3O)C1C2 (stereo in doubt; 9j)		0.04	
O=c1cnn(-c2cc(Cl)c(Oc3ccc(O)c(S(=O)(=O)Nc4ccccc4)c3)c(Cl)c2)c(=O)[nH]1		0.1	
O=C(NC1CCC1)c1cc(Oc2c(Cl)cc(-n3ncc(=O)[nH]c3=O)cc2Cl)ccc1O		0.64	
O=c1cnn(-c2cc(Cl)c(Oc3ccc(O)c(S(=O)(=O)NC4CCCCC4)c3)c(Cl)c2)c(=O)[nH]1		0.46	
CC1(C)C2CCC(NC(=O)c3cc(Oc4c(Cl)cc(-n5ncc(=O)[nH]c5=O)cc4Cl)ccc3O)C1C2 (stereo in doubt; 9i)		0.06	12
Cc1cc(-n2ncc(=O)[nH]c2=O)cc(Cl)c1Oc1ccc(O)c(S(=O)(=O)N2CCCCC2)c1		0.13	
O=c1cnn(-c2cc(Cl)c(Oc3ccc(O)c(S(=O)(=O)N4CCCCC4)c3)c(Cl)c2)c(=O)[nH]1		0.02	
O=c1cnn(-c2cc(Cl)c(Oc3ccc(O)c(S(=O)(=O)n4ccc5ccccc54)c3)c(Cl)c2)c(=O)[nH]1		0.23	
O=C(c1cc(Oc2c(Cl)cc(-n3ncc(=O)[nH]c3=O)cc2Cl)ccc1O)N1CC2CCC1C2 (racemic; endo)		0.16	
